Measurements taken from patent US20250170114A1, “METHODS OF TREATMENT USING T-TYPE CALCIUM CHANNEL MODULATORS” (Praxis Precision Medicines, Inc., priority 2022, published 2025).

Legend:
[1] = test system: participants with ET; assay: Phase 2 trial: Patient Global Impression of Change (PGI-C); assay type: in vivo, human; settings: Part B RWD (RWAS), Day 70, study drug group, n = 5, vs randomization baseline
Source text: The Patient Global Impression of Change (PGI-C) assesses the participant's improvement (or worsening). The participant is required to assess their condition relative to Baseline (Day 0) on a 7-point scale from 1 (very much improved) to 7 (very much worse). The assessment is made independent of whether the participant believes the improvement/worsening was drug-related or not. In some embodiments, the method results in a reduction in PGI-C score compared to baseline. The Columbia-Suicide Severity Rating Scale (C-SSRS) assesses suicidal ideation and behavior in participants during participation in a clinical trial of centrally-acting drugs. The C-SSRS is composed of 5 questions addressing suicidal behavior and 5 questions addressing suicidal ideation, with sub-questions assessing the severity. The tool should be administered via interview with the participant (by a trained operator/interviewer) and takes about 5 to 10 minutes to complete. In some embodiments, the method results in a reduction in suicidal ideation and/or behavior as compared to suicidal ideation and/or behavior prior to treatment. In other embodiments, the method results in no change in the C-SSRS score of a patient as compared to the C-SSRS score prior to treatment. Key safety measures included clinical laboratory evaluations, 12-lead ECG, C-SSRS, and vital signs. Key efficacy assessments included the TETRAS Performance subscale, TETRAS Upper Limb using accelerometry, CGI, and PGI-C. Blood samples were obtained for the determination of study drug plasma concentrations using a validated bioanalytical method and may also be used for method development and/or metabolite characterization. In both phases, key safety measures included clinical laboratory evaluations, 12-lead ECG, C-SSRS, and vital signs. Key efficacy assessments included the TETRAS Performance subscale, TETRAS Upper Limb using accelerometry, CGI, PGI-C, TETRAS ADL Subscale, QUEST, BDI-II, and BAI. Blood samples were obtained for the determination of study drug and metabolite plasma concentrations.

[2] = test system: participants with ET; assay: Phase 2 trial Part B: Beck Anxiety Inventory (BAI); assay type: in vivo, human
Experimental: The Beck Anxiety Index (BAI) is a brief measure of anxiety with a specific attention on somatic symptoms of anxiety that was developed as a measure aimed at discriminating between anxiety and depression (Beck et al 1988). The BAI contains 21 questions about the common symptoms of anxiety that the subject could have experienced during the past week (including the day the BAI is administered). The common symptoms of anxiety include numbness and tingling, sweating not due to heat, and fear of the worst happening. It is designed for individuals who are of 17 years of age or older and takes 5 to 10 minutes to complete. Each answer is scored on a scale value of 0 (not at all) to 3 (severely). Higher total scores indicate more severe anxiety symptoms. The standardized cutoffs are the following: 0-7: minimal, 8-15: mild, 16-25: moderate, 26-63: severe.
In both phases, key safety measures included clinical laboratory evaluations, 12-lead ECG, C-SSRS, and vital signs. Key efficacy assessments included the TETRAS Performance subscale, TETRAS Upper Limb using accelerometry, CGI, PGI-C, TETRAS ADL Subscale, QUEST, BDI-II, and BAI. Blood samples were obtained for the determination of study drug and metabolite plasma concentrations.

[3] = test system: rat spontaneous locomotor activity (sLMA); assay: Rat spontaneous locomotor activity (sLMA) assay; assay type: in vivo; settings: rats, 0-30 min; compound of Formula (I) 1 mg/kg p.o., propranolol 1 or 3 mg/kg i.p., alone or in combination
Experimental: […] Rat sLMA was measured from 0-30 min (0 minutes is 60 minutes after administration of the compound of Formula (I) and 20 minutes after administration of propranolol).

[4] = Part B OLT (FAS), Day 7, n = 13
[5] = Part B OLT (FAS), Day 21, n = 12
[6] = Part B OLT (FAS), Day 42, n = 11
[7] = Part B RWD (RWAS), Day 56, Study drug, n = 6
[8] = Part B RWD (RWAS), Day 70, Study drug, n = 5

CC(C)(C)NC(=O)CN1CCC(CNC(=O)c2cc(F)cc(Cl)c2)CC1.Cl [Study drug]
PGI-C Score 3 minimally improved [1]: 1 (20.0) n (%)
PGI-C Score 4 no change [1]: 3 (60.0) n (%)
PGI-C Score 6 much worse [1]: 1 (20.0) n (%)
BAI Score Mild (8-15) [2, 4]: 3 n (%)
BAI Score Minimal (0-7) [2, 4]: 7 n (%)
BAI Score Moderate (16-25) [2, 4]: 3 n (%)
BAI Score Severe (26-63) [2, 4]: 0 n (%)
BAI Score Mild (8-15) [2, 5]: 1 n (%)
BAI Score Minimal (0-7) [2, 5]: 9 n (%)
BAI Score Moderate (16-25) [2, 5]: 2 n (%)
BAI Score Severe (26-63) [2, 5]: 0 n (%)
BAI Score Mild (8-15) [2, 6]: 1 n (%)
BAI Score Minimal (0-7) [2, 6]: 9 n (%)
BAI Score Moderate (16-25) [2, 6]: 1 n (%)
BAI Score Severe (26-63) [2, 6]: 0 n (%)
BAI Score Mild (8-15) [2, 7]: 2 n (%)
BAI Score Minimal (0-7) [2, 7]: 4 n (%)
BAI Score Moderate (16-25) [2, 7]: 0 n (%)
BAI Score Severe (26-63) [2, 7]: 0 n (%)
BAI Score Mild (8-15) [2, 8]: 0 n (%)
BAI Score Minimal (0-7) [2, 8]: 4 n (%)
BAI Score Moderate (16-25) [2, 8]: 0 n (%)
BAI Score Severe (26-63) [2, 8]: 1 (20.0) n (%)
change in BAI scores ([2]; Part B open-label titration phase): shift in BAI scores from mild to minimal anxiety
total sLMA (total distance travelled) [3]: do not significantly reduce
